Patent US20080139626A1, “Novel Method” (priority 2005, published 2008)
Values after ≈ are worked out from the molar mass of the structure shown.

Experiments:
[1] = tested on: S. aureus (methicillin-resistant); experiment: MIC by broth microdilution; format: cell-based; conditions: N=51; for MIC50 / MIC90: Staphylococcus aureus
Description: (§1) Whole-cell antimicrobial activity was determined by broth microdilution. Test compounds were dissolved in DMSO and diluted 1:10 in water to produce a 64 mcg/ml stock solution. Using a 96 well microtitre plate, a Microlab AT Plus 2 (Hamilton Co., Reno, Nev.) serially diluted 50 ul of the stock solution into an appropriate broth medium. Staphylococcal isolates were tested using cation adjusted Mueller Hinton broth. For S. pneumonaie testing, the Mueller Hinton broth was supplemented with 5% lysed horse blood and H. influenzae was tested with Haemophilus Test Medium. After the compounds were diluted, a 50 ul aliquot of the test isolate (˜1×10^6 cfu/ml) prepared in normal saline was added to each well of the microtitre plate. The final test concentrations ranged from 0.016-16 ug/mL. Inoculated plates were incubated at 35° C. in ambient air for 18 to 24 hours. The minimum inhibitory concentration (MIC) was determined as the lowest concentration of compound that inhibited visible growth.

[2] = tested on: S. pneumoniae (penicillin-resistant); experiment: MIC by broth microdilution; format: cell-based; conditions: N=352; for MIC50 / MIC90: Streptococcus pneumoniae
Description: as §1

[3] = tested on: S. pneumoniae (levofloxacin-resistant); experiment: MIC by broth microdilution; format: cell-based; conditions: N=13; for MIC50 / MIC90: Streptococcus pneumoniae
Description: as §1

[4] = tested on: S. pyogenes (macrolide-resistant); experiment: MIC by broth microdilution; format: cell-based; conditions: N=83; for MIC50 / MIC90: Streptococcus pyogenes
Description: as §1

[5] = tested on: S. pneumoniae (macrolide-resistant); experiment: MIC by broth microdilution; format: cell-based; conditions: N=552; for MIC50 / MIC90: Streptococcus pneumoniae
Description: as §1

[6] = tested on: methicillin resistant S. aureus WCUH29; experiment: murine groin abscess infection model, oral efficacy; format: in vivo; conditions: mouse; for reduction of bacterial counts compared to non-treated controls: oral, p≦0.01
Description: Oral efficacy of Compound A was evaluated in a murine groin abscess infection model caused by a methicillin resistant S. aureus WCUH29. Animals were infected via subcutaneous injection into the groin with 0.5 mL of inoculum (approximately 5.7 log10 cfu/mouse). Groups of mice (n=5) received either Compound A (100, 300 or 600 mg/kg), moxifloxacin (100 mg/kg) or azithromycin (50 mg/kg).

S. aureus Ketek^R = experiment: MIC by broth microdilution; format: cell-based; conditions: 4 isolates
Description: as §1

[7] = tested on: S. aureus VRSA (vanc MIC > 4 μg/mL); experiment: MIC by broth microdilution; format: cell-based; conditions: 2 isolates
Description: as §1

S. aureus Linezolid^R = experiment: MIC by broth microdilution; format: cell-based; conditions: 3 isolates
Description: as §1

S. pneumoniae Cipro^R = experiment: MIC by broth microdilution; format: cell-based; conditions: 5 isolates
Description: as §1

H. influenzae ClarR = experiment: MIC by broth microdilution; format: cell-based; conditions: 5 isolates
Description: as §1

[8] = tested on: S. aureus VISA (vanc. MIC 4 μg/mL); experiment: MIC by broth microdilution; format: cell-based; conditions: 4 isolates
Description: as §1

H. influenzae BLNAR = experiment: MIC by broth microdilution; format: cell-based; conditions: 5 isolates
Description: as §1

S. pneumoniae Pen^R = experiment: MIC by broth microdilution; format: cell-based; conditions: 5 isolates
Description: as §1

S. epidermidis Meth^R = experiment: MIC by broth microdilution; format: cell-based; conditions: 6 isolates
Description: as §1

S. aureus Mupirocin^R = experiment: MIC by broth microdilution; format: cell-based; conditions: 8 isolates
Description: as §1

S. pneumoniae Eryth^R = experiment: MIC by broth microdilution; format: cell-based; conditions: 5 isolates
Description: as §1

S. aureus Tetracycline^R = experiment: MIC by broth microdilution; format: cell-based; conditions: 6 isolates
Description: as §1

S. aureus Meth^R/Ery^R = experiment: MIC by broth microdilution; format: cell-based; conditions: 10 isolates
Description: as §1

Row | Structure (SMILES) | MIC50 [1] [µg/mL] | MIC90 [1] [µg/mL] | MIC50 [2] [µg/mL] | MIC90 [2] [µg/mL] | MIC50 [3] [µg/mL] | MIC90 [3] [µg/mL] | MIC50 [4] [µg/mL] | MIC90 [4] [µg/mL] | MIC50 [5] [µg/mL] | MIC90 [5] [µg/mL] | MIC Range [2] | MIC Range [3] | MIC Range [4] | MIC Range [5] | also measured
1 | CC[C@H]1OC(=O)[C@H](C)[C@@H](O[C@H]2C[C@@](C)(OC)[C@@H](O)[C@H](C)O2)[C@H](C)[C@@H](O[C@@H]2O[C@H](C)C[C@H](N(C)C)[C@H]2O)[C@](C)(O)C[C@@H](C)CN(C)[C@H](C)[C@@H](O)[C@]1(C)O [Azithromycin] | > 16 | > 16 | > 16 | > 16 | 16 (≈ 21.4 µM) | > 16 | 16 (≈ 21.4 µM) | > 16 | > 16 | > 16 |  |  |  |  | reduction of bacterial counts ([6]; 50 mg/kg): 3.4 log10 cfu/abscess
2 | CO/N=C(\C(=O)N[C@@H]1C(=O)N2C(C(=O)O)=C(COC(N)=O)CS[C@H]12)c1ccco1 [Cefuroxime] | 4 (≈ 9.43 µM) | > 32 | 4 (≈ 9.43 µM) | 8 (≈ 18.9 µM) | 2 (≈ 4.71 µM) | 8 (≈ 18.9 µM) | ≤ 0.015 | ≤ 0.015 | 4 (≈ 9.43 µM) | 8 (≈ 18.9 µM) | 1 to 32 µg/mL | ≦0.015-8 μg/mL | ≦0.015-0.12 μg/mL | ≦0.015-32 μg/mL | 
3 | C=C[C@]1(C)C[C@@H](OC(=O)NC(=O)c2cnc(OC)c(N)c2)[C@]2(C)C(C)CC[C@]3(C[C@H](O)C(=O)[C@H]32)[C@@H](C)[C@@H]1O (stereo partly shown) [Compound A] | 1 (≈ 1.89 µM) | 1 (≈ 1.89 µM) | 0.25 (≈ 0.472 µM) | 0.25 (≈ 0.472 µM) | 0.25 (≈ 0.472 µM) | 0.5 (≈ 0.944 µM) | 0.25 (≈ 0.472 µM) | 0.25 (≈ 0.472 µM) | 0.25 (≈ 0.472 µM) | 0.25 (≈ 0.472 µM) | 0.03 to 1 µg/mL | 0.12 to 0.5 µg/mL | 0.12 to 0.25 µg/mL | 0.015 to 1 µg/mL | MIC Range (S. aureus Ketek^R): 0.5 to 4 µg/mL; MIC Range [7]: 0.5 µg/mL (≈ 0.944 µM); MIC Range [1]: 0.25 to 2 µg/mL; MIC Range (S. aureus Linezolid^R): 2 µg/mL (≈ 3.78 µM); MIC Range (S. pneumoniae Cipro^R): 0.125 to 0.25 µg/mL; MIC Range (H. influenzae ClarR): 4 to 8 µg/mL; MIC Range [8]: 0.5 to 4 µg/mL; MIC Range (H. influenzae BLNAR): 2 µg/mL (≈ 3.78 µM); MIC Range (S. pneumoniae Pen^R): 0.06 to 0.25 µg/mL; MIC Range (S. epidermidis Meth^R): 0.25 to 1 µg/mL; MIC Range (S. aureus Mupirocin^R): 0.25 to 1 µg/mL; MIC Range (S. pneumoniae Eryth^R): 0.125 to 0.25 µg/mL; MIC Range (S. aureus Tetracycline^R): 0.5 to 2 µg/mL; MIC Range (S. aureus Meth^R/Ery^R): 0.5 to 2 µg/mL; reduction of bacterial counts compared to non-treated controls ([6]; 300 mg/kg): 3.6 log10 cfu/abscess; reduction of bacterial counts compared to non-treated controls ([6]; 600 mg/kg): 4.3 log10 cfu/abscess
4 | CC[C@H]1OC(=O)[C@H](C)C(=O)[C@H](C)[C@@H](O[C@@H]2O[C@H](C)C[C@H](N(C)C)[C@H]2O)[C@](C)(OC)C[C@@H](C)C(=O)[C@H](C)[C@H]2N(CCCCn3cnc(-c4cccnc4)c3)C(=O)O[C@]12C [Telithromycin] | 0.25 (≈ 0.308 µM) | > 16 | 0.25 (≈ 0.308 µM) | 2 (≈ 2.46 µM) | 0.12 (≈ 0.148 µM) | 0.5 (≈ 0.616 µM) | 0.03 (≈ 0.0369 µM) | 8 (≈ 9.85 µM) | 0.25 (≈ 0.308 µM) | 2 (≈ 2.46 µM) | ≦0.002-16 μg/mL | ≦0.002-2 μg/mL |  | ≦0.002-16 μg/mL | 

The next lines start with results.

Row | MIC50 [1] [µg/mL] | MIC90 [1] [µg/mL] | MIC50 [2] [µg/mL] | MIC90 [2] [µg/mL] | MIC50 [3] [µg/mL] | MIC90 [3] [µg/mL] | MIC50 [4] [µg/mL] | MIC90 [4] [µg/mL] | MIC50 [5] [µg/mL] | MIC90 [5] [µg/mL] | MIC Range [2] | MIC Range [3] | MIC Range [4] | MIC Range [5] | Structure (SMILES) | also measured
5 | 0.5 (≈ 1.38 µM) | > 8 | 1 (≈ 2.77 µM) | 1 (≈ 2.77 µM) | > 8 | > 8 | 0.5 (≈ 1.38 µM) | 1 (≈ 2.77 µM) | 1 (≈ 2.77 µM) | 2 (≈ 5.53 µM) |  |  | 0.12 to 2 µg/mL |  | C[C@H]1COc2c(N3CCN(C)CC3)c(F)cc3c(=O)c(C(=O)O)cn1c23 [Levofloxacin] | 
6 | 0.12 (≈ 0.299 µM) | 4 (≈ 9.96 µM) | 0.12 (≈ 0.299 µM) | 0.25 (≈ 0.623 µM) | 4 (≈ 9.96 µM) | 8 (≈ 19.9 µM) | 0.12 (≈ 0.299 µM) | 0.25 (≈ 0.623 µM) | 0.12 (≈ 0.299 µM) | 0.25 (≈ 0.623 µM) |  |  | 0.06 to 0.5 µg/mL |  | COc1c(N2C[C@@H]3CCCN[C@@H]3C2)c(F)cc2c(=O)c(C(=O)O)cn(C3CC3)c12 [Moxifloxacin] | reduction of bacterial counts ([6]; 100 mg/kg): 4.6 log10 cfu/abscess
